Measured values published in ChEMBL document CHEMBL4152218, “Novel hydrazide-hydrazone and amide substituted coumarin derivatives: Synthesis, cytotoxicity screening, microarray, radiolabeling and in vivo pharmacokinetic studies” (Eur J Med Chem, 2018).
pIC50: −log10 of the molar value. Calls of active or inactive are those of the source. The calls are words filed in the database; no cut-off is given here.

How the values were obtained:
[1] = test system: CCRF-CEM; experiment: Antiproliferative activity against human CCRF-CEM cells after 48 hrs by resazurin dye-based fluorescence assay; type: functional, cell-based
[2] = test system: HepG2; experiment: Effect on PYCR1 gene expression in human HepG2 cells at IC50 after 48 hrs by microarray analysis; type: functional, cell-based
[3] = test system: hTERT-BJ; experiment: Cytotoxicity against hTERT-BJ cells at 25 uM after 48 hrs by resazurin dye-based fluorescence assay relative to control; type: cell-based; conditions: human
[4] = test system: PANC-1; experiment: Effect on CLDN14 gene expression in human PANC1 cells at IC50 after 48 hrs by microarray analysis; type: functional, cell-based
[5] = test system: HepG2; experiment: Effect on MYO 10 gene expression in human HepG2 cells at IC50 after 48 hrs by microarray analysis; type: functional, cell-based
[6] = Selectivity index, ratio of IC50 for hTERT-BJ cells to IC50 for human PANC1 cells; type: toxicity; conditions: hTERT-BJ cells versus PANC1 cells, read-out: Ratio IC50
[7] = test system: TERT-RPE1; experiment: Cytotoxicity against hTERT-RPE1 cells at 25 uM after 48 hrs by resazurin dye-based fluorescence assay relative to control; type: cell-based; conditions: human, tert-rpe1, 48 h
[8] = test system: HepG2; experiment: Effect on TNFRSF 19 gene expression in human HepG2 cells at IC50 after 48 hrs by microarray analysis; type: functional, cell-based
[9] = test system: HepG2; experiment: Effect on TUBB1 gene expression in human HepG2 cells at IC50 after 48 hrs by microarray analysis; type: functional, cell-based
[10] = test system: PANC-1; experiment: Effect on NBPF20 gene expression in human PANC1 cells at IC50 after 48 hrs by microarray analysis; type: functional, cell-based
[11] = test system: HepG2; experiment: Effect on CASP7 gene expression in human HepG2 cells at IC50 after 48 hrs by microarray analysis; type: functional, cell-based
[12] = test system: HepG2; experiment: Effect on PCDH21 gene expression in human HepG2 cells at IC50 after 48 hrs by microarray analysis; type: functional, cell-based
[13] = test system: HepG2; experiment: Effect on TOP2A gene expression in human HepG2 cells at IC50 after 48 hrs by microarray analysis; type: functional, cell-based
[14] = test system: HepG2; experiment: Effect on CASP8 gene expression in human HepG2 cells at IC50 after 48 hrs by microarray analysis; type: functional, cell-based
[15] = test system: TERT-RPE1; experiment: Cytotoxicity against hTERT-RPE1 cells at 6.25 uM after 48 hrs by resazurin dye-based fluorescence assay relative to control; type: cell-based; conditions: human, tert-rpe1, 48 h
[16] = test system: PANC-1; experiment: Effect on ITGA2 gene expression in human PANC1 cells at IC50 after 48 hrs by microarray analysis; type: functional, cell-based
[17] = test system: PANC-1; experiment: Effect on CYP1A1 gene expression in human PANC1 cells at IC50 after 48 hrs by microarray analysis; type: ADME, cell-based; conditions: panc-1, 48 h
[18] = test system: PANC-1; experiment: Induction of apoptosis in human PANC1 cells assessed as increase in caspase-3/7 activity after 24 hrs by Caspase-Glo 3/7 luminescence assay; type: functional, cell-based
[19] = test system: PANC-1; experiment: Effect on GSTM1 gene expression in human PANC1 cells at IC50 after 48 hrs by microarray analysis; type: functional, cell-based
[20] = test system: HepG2; experiment: Effect on GDF15 gene expression in human HepG2 cells at IC50 after 48 hrs by microarray analysis; type: functional, cell-based
[21] = test system: HepG2; experiment: Effect on ARK1B15 gene expression in human HepG2 cells at IC50 after 48 hrs by microarray analysis; type: functional, cell-based
[22] = test system: PANC-1; experiment: Effect on GLULP2 gene expression in human PANC1 cells at IC50 after 48 hrs by microarray analysis; type: functional, cell-based
[23] = test system: PANC-1; experiment: Effect on ZNF43 gene expression in human PANC1 cells at IC50 after 48 hrs by microarray analysis; type: functional, cell-based
[24] = test system: HepG2; experiment: Effect on GST A2 gene expression in human HepG2 cells at IC50 after 48 hrs by microarray analysis; type: functional, cell-based
[25] = test system: PANC-1; experiment: Effect on CTBP2 gene expression in human PANC1 cells at IC50 after 48 hrs by microarray analysis; type: functional, cell-based
[26] = test system: PANC-1; experiment: Effect on UPP1 gene expression in human PANC1 cells at IC50 after 48 hrs by microarray analysis; type: functional, cell-based
[27] = test system: HepG2; experiment: Effect on OKL38 gene expression in human HepG2 cells at IC50 after 48 hrs by microarray analysis; type: functional, cell-based
[28] = Selectivity index, ratio of IC50 for hTERT-RPE1 cells to IC50 for human PANC1 cells; type: toxicity; conditions: hTERT-RPE1 cells versus PANC1 cells, read-out: Ratio IC50
[29] = test system: HepG2; experiment: Effect on CYP3A4 gene expression in human HepG2 cells at IC50 after 48 hrs by microarray analysis; type: ADME, cell-based; conditions: hepg2, 48 h
[30] = test system: HepG2; experiment: Effect on INHBE gene expression in human HepG2 cells at IC50 after 48 hrs by microarray analysis; type: functional, cell-based
[31] = test system: PANC-1; experiment: Effect on TOP2A gene expression in human PANC1 cells at IC50 after 48 hrs by microarray analysis; type: functional, cell-based
[32] = test system: HepG2; experiment: Effect on TOP3B gene expression in human HepG2 cells at IC50 after 48 hrs by microarray analysis; type: functional, cell-based
[33] = test system: PANC-1; experiment: Effect on ZNF148 gene expression in human PANC1 cells at IC50 after 48 hrs by microarray analysis; type: functional, cell-based
[34] = test system: PANC-1; experiment: Effect on ABCB4 gene expression in human PANC1 cells at IC50 after 48 hrs by microarray analysis; type: functional, cell-based
[35] = test system: PANC-1; experiment: Effect on CYP3A4 gene expression in human PANC1 cells at IC50 after 48 hrs by microarray analysis; type: ADME, cell-based; conditions: panc-1, 48 h
[36] = test system: HepG2; experiment: Effect on AKR1B10 gene expression in human HepG2 cells at IC50 after 48 hrs by microarray analysis; type: functional, cell-based
[37] = test system: PANC-1; experiment: Effect on LOC407835 gene expression in human PANC1 cells at IC50 after 48 hrs by microarray analysis; type: functional, cell-based
[38] = test system: HepG2; experiment: Effect on GDF15 gene expression in human HepG2 cells at IC50 by SYBR green-dye based qRT-PCR analysis relative to beta-actin; type: functional
[39] = test system: PANC-1; experiment: Effect on CASP7 gene expression in human PANC1 cells at IC50 after 48 hrs by microarray analysis; type: functional, cell-based
[40] = test system: PANC-1; experiment: Effect on HEATR3 gene expression in human PANC1 cells at IC50 after 48 hrs by microarray analysis; type: functional, cell-based
[41] = test system: HepG2; experiment: Effect on GADD45A gene expression in human HepG2 cells at IC50 after 48 hrs by microarray analysis; type: functional, cell-based
[42] = Selectivity index, ratio of IC50 for hTERT-BJ cells to IC50 for human CCRF-CEM cells; type: toxicity; conditions: hTERT-BJ cells versus CCRF-CEM cells, read-out: Ratio IC50
[43] = test system: HepG2; experiment: Effect on PRPF4B gene expression in human HepG2 cells at IC50 after 48 hrs by microarray analysis; type: functional, cell-based
[44] = test system: HepG2; experiment: Effect on CXCR3 gene expression in human HepG2 cells at IC50 after 48 hrs by microarray analysis; type: functional, cell-based
[45] = test system: PANC-1; experiment: Effect on ABCB1 gene expression in human PANC1 cells at IC50 after 48 hrs by microarray analysis; type: functional, cell-based
[46] = test system: HepG2; experiment: Effect on LANCL 1 gene expression in human HepG2 cells at IC50 after 48 hrs by microarray analysis; type: functional, cell-based
[47] = test system: hTERT-BJ; experiment: Cytotoxicity against hTERT-BJ cells at 12.50 uM after 48 hrs by resazurin dye-based fluorescence assay relative to control; type: cell-based; conditions: human, 12.5 µM

In the case of `O=C(N/N=C/c1cc2ccccc2nc1Cl)c1cc2cc(Br)ccc2oc1=O`, the pIC50 [1] was 5.13, the Activity [2] was “Active” and the Activity [3] was 3.47%. The Activity [4] was “Active”, the Activity [5] was “Active” and the selectivity ratio [6] was > 9.18. The Activity [7] was 19.41%, the Activity [8] was “Active” and the Activity [9] was “Active”. The Activity [10] was “Active”, the Activity [11] was “Active” and the Activity [12] was “Active”. The Activity [13] was “Active”, the Activity [14] was “Active” and the Activity [15] was 0.94%. For the same molecule, the Activity [16] was “Active”, the Activity [17] was “Active” and the Activity [18] was “Dose-dependent effect”. For the same molecule, the Activity [19] was “Active”, the Activity [20] was “Active” and the Activity [21] was “Active”. For the same molecule, the Activity [22] was “Active”, the Activity [23] was “Active” and the Activity [24] was “Active”. For the same molecule, the Activity [25] was “Active”, the Activity [26] was “Active” and the Activity [27] was “Active”. The selectivity ratio [28] was > 9.18, the Activity [29] was “Active” and the Activity [30] was “Active”. For the same molecule, the Activity [31] was “Active”, the Activity [32] was “Active” and the Activity [33] was “Active”. For the same molecule, the Activity [34] was “Active”, the Activity [35] was “Active” and the Activity [36] was “Active”. For the same molecule, the Activity [37] was “Active”, the “fold change (FC)” value [38] was 3.51 and the Activity [39] was “Active”. The Activity [40] was “Active”, the Activity [41] was “Active” and the selectivity ratio [42] was > 6.71. The Activity [43] was “Active”, the Activity [44] was “Active” and the Activity [45] was “Active”. The Activity [46] was “Active” and the Activity [47] was 3.63%.
